Consider 6 molecules from patent US20250186430A1, “THERAPY OF INTEROCEPTION DISORDERS WITH CGRP RECEPTOR ANTAGONISTS” (priority 2022, published 2025).

Series [1] has as its system rats exposed to the chemotherapeutic drug cisplatin. Put plainly: cisplatin model of malaise due to antineoplastic chemotherapy. The format is in vivo. As to conditions: cisplatin 6 mg/kg intraperitoneal, gepant 10 mg/kg orally, daily, starting two days before cisplatin. How it is done: FIG. 1. Effect of rimegepant, ubrogepant, atogepant and zavegepant (10 mg/kg orally, daily, starting two days before cisplatin) on food consumption/anorexia, weight loss and weight body recovery in rats exposed to cisplatin (6 mg/kg, intraperitoneal), as an experimental model of malaise due to antineoplastic chemotherapy. * p<0.05, ** p<0.01, *** p<0.001, vs control, ANOVA and Tukeys post hoc test.

In series [2] the test system is mice sensitized and re-challenged with ovalbumin. Put plainly: ovalbumin model of asthma or chronic obstructive pulmonary disease. The format is in vivo. As to conditions: gepant 10 mg/kg orally, daily, starting two days before antigen rechallenge. How it is done: FIG. 7. Effects of rimegepant, ubrogepant, atogepant and zavegepant (10 mg/kg orally, daily, starting two days before antigen rechallenge) on spontaneous motility, body weight loss and sweet water ingestion of mice sensitized and re-challenged with ovalbumin as a model of asthma or chronic obstructive pulmonary disease. * p<0.05, ** p<0.01, *** p<0.001 vs […], ANOVA and Tukeys post hoc test.

The subject of series [3] is rats injected with cerulein. Put plainly: cerulein model of pancreatitis. The format is in vivo. As to conditions: gepant 10 mg/kg orally, daily, starting two days before cerulein treatment. How it is done: FIG. 5. Effects of rimegepant, ubrogepant, atogepant and zavegepant (10 mg/kg orally, daily, starting two days before cerulein treatment) on body weight loss and spontaneous motility in rats injected with cerulein as an experimental model of pancreatitis. * p<0.05, ** p<0.01, *** p<0.001 vs Pancreatitis, ANOVA and Tukeys post hoc test.

For series [4] the following is noted: background art; cited from earlier work.
The subject of series [5] is rats injected with Yoshida hepatoma. Nature of the series: Yoshida hepatoma model of malaise due to tumor cachexia. The series is classed as in vivo. As to conditions: gepant 10 mg/kg orally, daily, starting two days before tumor injection. How it is done: As additional models of malaise due to interoceptive information, we have adopted those of tumor cachexia and sepsis.
FIG. 8. Effects of rimegepant, ubrogepant, atogepant and zavegepant (10 mg/kg orally, daily, starting two days before tumor injection) on body weight loss, muscle mass and food consumption/anorexia in rats injected with Yoshida hepatoma, as classic model of malaise due to tumor cachexia. * p<0.05, ** p<0.01, *** p<0.001. **** p<0.0001 vs Hepatoma, ANOVA and Tukeys post hoc test.

The subject of series [6] is rats injected intraperitoneally with lipopolysaccharides from Salmonella Typhimurium. Nature of the series: lipopolysaccharide model of malaise due to sepsis/systemic immune activation. The format is in vivo. As to conditions: gepant 10 mg/kg orally, daily, starting two days before lipopolysaccharides injection. How it is done:
FIG. 9. Effects of rimegepant, ubrogepant, atogepant and zavegepant (10 mg/kg orally, daily, starting two days before lipopolysaccharides injection) on body weight loss and food consumption/anorexia in rats injected intraperitoneally with lipopolysaccharides from Salmonella Typhimurium as a classic model of malaise due to sepsis/systemic immune activation. * p<0.05, ** p<0.01, vs Sepsis, ANOVA and Tukeys post hoc test.

Series [7] has as its system mice with chronic arthritis due to injection of Freund's adjuvant. Put plainly: chronic arthritis (Freund's adjuvant) model of malaise due to chronic pain. The conditions noted are these: gepant 10 mg/kg orally, daily, starting two days before arthritis induction. The format is in vivo. How it is done:
FIG. 2. Effects of rimegepant, ubrogepant, atogepant and zavegepant (10 mg/kg orally, daily, starting two days before arthritis induction) on food consumption/anorexia, weight loss and spontaneous motility in mice with chronic arthritis due to injection of Freund's adjuvant as an experimental model of malaise due to chronic pain. * p<0.05, ** p<0.01, *** p<0.001 vs Arthritis, ANOVA and Tukeys post hoc test.

Series [8] concerns rats treated with a diet containing 0.75% adenine. Nature of the series: 0.75% adenine diet model of renal insufficiency. The format is in vivo. As to conditions: gepant 10 mg/kg orally, daily, starting two days before nephrotoxic diet. How it is done: Further, we have tested the gepants in rats treated with a diet containing 0.75% adenine as an experimental model of renal insufficiency.
FIG. 6. Effects of rimegepant, ubrogepant, atogepant and zavegepant (10 mg/kg orally, daily, starting two days before exposure to the nephrotoxic diet) on body weight loss and food consumption/anorexia in rats exposed to a diet containing 0.75% adenine as an experimental model of renal insufficiency. *p<0.05, ** p<0.01, *** p<0.001 vs Kidney Failure, ANOVA and Tukeys post hoc test.

The subject of series [9] is rats treated with carbon tetrachloride. Put plainly: carbon tetrachloride model of malaise due to hepatopathy. The format is in vivo. As to conditions: gepant 10 mg/kg orally, daily, starting two days before carbon tetrachloride. How it is done: Further, we have tested the gepants in a model of hepatopathy, a condition that typically prompts asthenia, weight loss and anhedonia.
FIG. 4. Effects of rimegepant, ubrogepant, atogepant and zavegepant (10 mg/kg orally, daily, starting two days before carbon tetrachloride) on body weight loss and sweet water consumption in rats treated with carbon tetrachloride as a model of malaise due to hepatitis/hepatopathy. * p<0.05, ** p<0.01, *** p<0.001 vs Hepatitis, ANOVA and Tukeys post hoc test.

The subject of series [10] is rats subjected to laparotomy and gut manipulation. Put plainly: laparotomy and gut manipulation model of malaise due to abdominal surgery. The conditions noted are these: gepant 10 mg/kg orally, daily, starting two days before surgery. The format is in vivo. How it is done:
FIG. 3. Effects of rimegepant, ubrogepant, atogepant and zavegepant (10 mg/kg orally, daily, starting two days before surgery) on body weight loss and food consumption/anorexia in rats subjected to laparotomy and gut manipulation as an experimental model of malaise due to abdominal surgery. * p<0.05, ** p<0.01, *** p<0.001 vs Laparotomy, ANOVA and Tukeys post hoc test.

The conditions of series [11]: background art; cited from earlier work. The source holds these as a separate data set.

Molecules are shown by their SMILES.

On to `C[C@@H]1[C@H](c2c(F)ccc(F)c2F)C[C@H](NC(=O)c2cnc3c(c2)C[C@@]2(C3)C(=O)Nc3ncccc32)C(=O)N1CC(F)(F)F` [atogepant], for which, in series [1], the body weight loss result is “reduces”, the food aversion/anorexia entry is listed as “reduces” and the weight body recovery result is “accelerates”. Further, in [2], the “decrease of sweet water consumption” value is reported as “reduces”, the “spontaneous motility (parameter of malaise)” value is listed as “reduces” and the weight loss entry is reported as “reduces”. In series [3], the “reduction in spontaneous motility” value was “prevents” and the weight loss result is given as “prevents”. Further, the hepatotoxicity entry in series [4] is listed as “non-hepatotoxic”. Moreover, in [5], the “loss of muscle mass” value is reported as “counteracting”, the “reduction of food consumption/anorexia” value is given as “counteracting” and the weight loss entry was “reducing”. Moreover, in series [6], the “decrease of food consumption/anorexia” value is “reduces” and the weight loss entry is recorded as “reduces”. Besides, in series [7], the food aversion/anorexia entry is “reduces”, the spontaneous motility result was “increases” and the weight loss entry is “reduces”. Further, in [8], the “decrease of food consumption/anorexia” value is recorded as “reduces” and the weight loss result is listed as “reduces”. In addition, in series [9], the “sweet water consumption (index of motivational behavior and reduced anhedonia)” value was “triggers an increase”; the weight loss entry is “reduces”. Besides, in series [10], the food aversion/anorexia entry is on record as “in part” and the weight loss entry is “completely prevents”.
`NCCCC[C@H](NC(=O)[C@@H](Cc1cc(Br)c(O)c(Br)c1)NC(=O)N1CCC(N2Cc3ccccc3NC2=O)CC1)C(=O)N1CCN(c2ccncc2)CC1` [olcegepant]: in [11], the “efficacy as anti-migraine drugs” value was “proved efficacious”. Moreover, the hepatotoxicity result in [4] is listed as “occurrence of hepatotoxicity”.
Consider `N[C@@H]1c2cccnc2[C@H](OC(=O)N2CCC(n3c(=O)[nH]c4ncccc43)CC2)CC[C@H]1c1cccc(F)c1F` [rimegepant], for which, in series [1], the body weight loss result is listed as “reduces”, the food aversion/anorexia entry is given as “reduces” and the weight body recovery result is “accelerates”. For the same molecule, in [2], the “decrease of sweet water consumption” value is on record as “reduces”, the “spontaneous motility (parameter of malaise)” value is reported as “reduces” and the weight loss entry is “reduces”. In addition, in series [3], the “reduction in spontaneous motility” value is on record as “prevents” and the weight loss result is given as “prevents”. Besides, the hepatotoxicity entry in [4] was “non-hepatotoxic”. Besides, in series [5], the “loss of muscle mass” value is “counteracting”, the “reduction of food consumption/anorexia” value is “counteracting” and the weight loss entry is recorded as “reducing”. For the same molecule, in series [6], the “decrease of food consumption/anorexia” value is “reduces” and the weight loss result is “reduces”. Further, in series [7], the food aversion/anorexia result was “reduces”, the spontaneous motility entry is given as “increases” and the weight loss result is recorded as “reduces”. Besides, in series [8], the “decrease of food consumption/anorexia” value was “reduces” and the weight loss result is “reduces”. Besides, in [9], the “sweet water consumption (index of motivational behavior and reduced anhedonia)” value was “triggers an increase”; the weight loss result is listed as “reduces”. Moreover, in series [10], the food aversion/anorexia entry is “in part” and the weight loss result is “completely prevents”.
Consider `O=C(N[C@@H]1CC[C@@H](c2cccc(F)c2F)CN(CC(F)(F)F)C1=O)N1CCC(n2c(=O)[nH]c3ncccc32)CC1` [telcagepant], for which the “efficacy as anti-migraine drugs” value in [11] is “proved efficacious”. The hepatotoxicity entry in [4] is reported as “occurrence of hepatotoxicity”.
In the case of `C[C@@H]1[C@H](c2ccccc2)C[C@H](NC(=O)c2cnc3c(c2)C[C@@]2(C3)C(=O)Nc3ncccc32)C(=O)N1CC(F)(F)F` [ubrogepant], in series [1], the body weight loss result is recorded as “reduces”, the food aversion/anorexia result was “reduces” and the weight body recovery entry is reported as “accelerates”. In series [2], the “decrease of sweet water consumption” value was “reduces”, the “spontaneous motility (parameter of malaise)” value is reported as “reduces” and the weight loss result is “reduces”. In series [3], the “reduction in spontaneous motility” value is “prevents” and the weight loss entry is “prevents”. Besides, the hepatotoxicity entry in series [4] was “non-hepatotoxic”. For the same molecule, in series [5], the “loss of muscle mass” value is “counteracting”, the “reduction of food consumption/anorexia” value was “counteracting” and the weight loss result was “reducing”. Besides, in series [6], the “decrease of food consumption/anorexia” value is recorded as “reduces” and the weight loss result is on record as “reduces”. Besides, in series [7], the food aversion/anorexia entry is “reduces”, the spontaneous motility entry is on record as “increases” and the weight loss entry is “reduces”. Moreover, in series [8], the “decrease of food consumption/anorexia” value is “reduces” and the weight loss entry is “reduces”. In series [9], the “sweet water consumption (index of motivational behavior and reduced anhedonia)” value is “triggers an increase”; the weight loss entry is given as “reduces”. Also, in series [10], the food aversion/anorexia entry is “in part” and the weight loss entry was “completely prevents”.
As to `Cc1cc(C[C@@H](NC(=O)N2CCC(c3cc4ccccc4[nH]c3=O)CC2)C(=O)N2CCN(C3CCN(C)CC3)CC2)cc2cn[nH]c12` [zavegepant], in series [1], the body weight loss entry is listed as “reduces”, the food aversion/anorexia result is “reduces” and the weight body recovery result is listed as “accelerates”. Also, in series [2], the “decrease of sweet water consumption” value is given as “reduces”, the “spontaneous motility (parameter of malaise)” value is recorded as “reduces” and the weight loss entry is listed as “reduces”. In series [3], the “reduction in spontaneous motility” value was “prevents” and the weight loss result is “prevents”. The hepatotoxicity result in [4] is reported as “non-hepatotoxic”. Moreover, in series [5], the “loss of muscle mass” value was “counteracting”, the “reduction of food consumption/anorexia” value was “counteracting” and the weight loss entry is reported as “reducing”. Besides, in series [6], the “decrease of food consumption/anorexia” value is “reduces” and the weight loss entry is recorded as “reduces”. Further, in series [7], the food aversion/anorexia entry is “reduces”, the spontaneous motility result was “increases” and the weight loss result is given as “reduces”. Besides, in [8], the “decrease of food consumption/anorexia” value is recorded as “reduces” and the weight loss entry is on record as “reduces”. In addition, in [9], the “sweet water consumption (index of motivational behavior and reduced anhedonia)” value was “triggers an increase”; the weight loss result was “reduces”. Further, in [10], the food aversion/anorexia result was “in part” and the weight loss result is given as “completely prevents”.
